In patent publication US20240025922A1, “TETRAHYDROPYRIDO[3,4-d]PYRIMIDINES AS HPK1 INHIBITORS” (Merck Patent GmbH, priority 2022, published 2024) one finds IC50 data, which are given here for 17 molecules.

In assay [1] the target is full-length human HPK1 (MAP4K1) (Homo sapiens (Human), UniProt Q92918). Description: HPK1 Kinase Assay (Biochemical Assay), ADP-Glo. The following applies: GST-HPK1 3.2 nM, 10 μM ATP, MBP substrate, read-out: HPK1 enzymatic IC50. From the text: HPK1 Kinase Assay (Biochemical Assay).
full-length human HPK1 (MAP4K1), sequence (Q92918 whole entry, the tested form may be a part): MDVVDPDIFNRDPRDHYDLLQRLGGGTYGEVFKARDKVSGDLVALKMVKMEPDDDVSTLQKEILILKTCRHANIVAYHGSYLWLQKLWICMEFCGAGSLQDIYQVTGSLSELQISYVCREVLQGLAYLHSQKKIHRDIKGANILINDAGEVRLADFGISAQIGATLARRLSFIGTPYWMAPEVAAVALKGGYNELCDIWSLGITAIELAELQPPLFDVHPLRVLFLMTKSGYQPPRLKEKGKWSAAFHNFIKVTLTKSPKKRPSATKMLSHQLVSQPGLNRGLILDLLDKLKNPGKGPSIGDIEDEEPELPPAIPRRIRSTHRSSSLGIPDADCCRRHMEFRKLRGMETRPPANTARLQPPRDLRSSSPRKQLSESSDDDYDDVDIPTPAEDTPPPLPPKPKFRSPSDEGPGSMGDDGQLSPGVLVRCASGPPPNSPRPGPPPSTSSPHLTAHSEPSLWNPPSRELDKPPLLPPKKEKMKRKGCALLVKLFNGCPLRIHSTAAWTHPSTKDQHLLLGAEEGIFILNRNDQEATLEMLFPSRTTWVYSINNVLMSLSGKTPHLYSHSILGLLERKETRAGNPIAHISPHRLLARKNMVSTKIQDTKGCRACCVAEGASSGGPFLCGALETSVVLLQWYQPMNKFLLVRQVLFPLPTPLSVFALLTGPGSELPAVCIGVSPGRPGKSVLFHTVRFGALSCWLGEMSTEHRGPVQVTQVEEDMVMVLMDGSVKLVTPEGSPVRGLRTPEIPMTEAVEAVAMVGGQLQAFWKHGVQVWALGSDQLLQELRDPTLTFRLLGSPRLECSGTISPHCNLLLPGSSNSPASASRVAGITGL
A recombinant fusion protein consisting of full-length human HPK1 (MAP4K1) with an N-terminal Glutatione S-transferase (GST) tag was produced in insect cells Sf21 using the baculovirus expression system. GST-HPK1 protein was purified from cell lysates by glutathione Sepharose affinity chromatography. The assay is run in three continuous steps: 1) the HPK1 enzymatic kinase reaction, 2) an ATP depletion, and 3) the ADP detection, the steps 2 and 3 are performed with ADP-Glo™ Kinase Assay kit from Promega (V9101). Test compounds were prepared by 10-point serial dilution in dimethyl sulfoxide (DMSO) and 100 nL of each dilution was spotted onto a 384-well Optiplate (Perkin Elmer and Cat #6007299) by Labcyte Echo. 5 μL kinase reaction buffer (0.02% Brij-35, 2 mM DTT, 50 mM HEPES pH 7.5, MgCl2 10 mM, BSA 0.01% and O-glycerophosphate 12.5 mM) containing HPK1 (3.2 nM) enzyme was transferred to each well and incubated for 15 minutes at room temperature at 60% humidity. The enzymatic reaction was started by adding 5 μl of Start-Mix (10 μM ATP and 3.235 μM MBP). After 120 minutes, the reaction was stopped by adding 5 μL of ADP-Glo reagent (Promega, V9101) and incubating for 40 min. in the dark at 23° C. To determine the level of ADP, 10 μl ADP-Glo Detection solution was added and incubated for 1 hour at 23° C. in the dark. The plate was transferred to a Perkin Elmer EnVision (2104 Multilabel Reader) for luminescence detection and percent inhibition activity and IC50 value were determined using Genedata Screener.
For orientation: In ADP-Glo the light output rises with the ADP produced.

For assay [2], the target named is HPK1 (SLP76 phosphorylation at Ser376 in Jurkat and EL-4 cells) (Homo sapiens, UniProt Q92918). Type of assay: cell-based. The following applies: αCD3/αCD28 Dynabeads stimulated cells, pSLP76 (Ser376) detection; read-out: HPK1 pSLP76 IC50. As to the method: Cellular Assay—Phospho-SLP-76 (Ser376).
HPK1 (SLP76 phosphorylation at Ser376 in Jurkat and EL-4 cells), sequence (Q92918 whole entry, looked up): as the sequence (Q92918 whole entry, the tested form may be a part) above
Inhibition of HPK1 enzymatic activity in cells was determined by detection of SLP76 phosphorylation at Ser376 residue in lysate from Jurkat (human) and EL-4 (mouse) cells. Jurkat and EL-4 cells express both HPK1 and SLP76 naturally. All cells were cultured in RPMI 1640 media containing 10% heat inactivated fetal bovine serum (FBS) and 1×Penicillin-Streptomycin. In either Jurkat or El-4 assay, cells were pre-incubated with test compounds prior to T cell stimulation by respective αCD3/αCD28 Dynabeads™. For detection, plates were read on the Envision and percent inhibition and IC50 were determined by Smart fit in Genedata Analyzer.
For Jurkat cells: 35 μL cell suspension were dispensed at a density of 30,000 cells/well in 384-well plates containing HBSS (Gibco, 14025076)+0.1% BSA). 10-point logarithmic serial dilution of test compounds in DMSO were prepared by a Hamilton automated liquid handling robot and 35 nL was transferred into each well by an Echo liquid handler. After 60 min. pre-incubation, the cells were stimulated by adding 5 μL human T activator αCD3/αCD28 Dynabeads™ (Gibco, 11132D) at 1.2×107 beads/mL for 15 minutes at 37° C. Detection of Ser376 phosphorylation status was accomplished by first adding 10 μL of 5×AlphaLISA lysis buffer (Perkin Elmer, ALSU-PSLP-A500) to each well of the cell plate using a Multidrop Combi (5840300), followed by 20 minutes shaking. 10 μL cell lysate from each treatment were then transferred to a white 384-well plate (Corning 3572) and incubated with AlphaLISA acceptor beads for one hour (AlphaLISA SureFire Ultra p-SLP76(Ser376), Perkin Elmer, ALSU-PSLP-A500), and donor beads for additional 2 hours at room temperature in the dark.
For EL-4.IL2 assay, 50 μL cell suspension at 2×10^6 cells/mL in HBSS were first dispensed into 384-well plates and then 50 nL serial dilutions of test compounds were spotted to each well by an Echo liquid handler. After 60 min. incubation at 37° C., cells were stimulated by adding 5 μL mouse T cell activator αCD3/αCD28 Dynabeads™ (ThermFisher Scientific, 11452D) for 30 minutes at 37° C. After a brief spin and subsequent supernatant discarded, 12.5 μL of Cisbio lysis buffer were added to each well and plates were shaken for 30 min at 450 RPM. For detection, 4 μL prepared HTRF antibody mixture (Cisbio, 63ADK000U) in detection buffer were mixed with 16 μl of cell lysate and plates were incubated at room temperature for 19 hours prior to EnVision reading.

In the case of `Cc1cc(Nc2ncc3c(n2)CN(c2cnc4c(c2C)NCCO4)CC3)ccc1NCCN1CCOCC1` [Example 23, 2-methyl-N4-(7-{8-methyl-1H,2H,3H-pyrido[2,3-b][1,4]oxazin-7-yl}-5H,6H,7H,8H-pyrido[3,4-d]pyrimidin-2-yl)-N1-[2-(morpholin-4-yl)ethyl]benzene-1,4-diamine], the IC50 (in general, the concentration that inhibits the measured activity by half) in assay [1] was below 100 nM; in assay [2], 500 to 1000 nM.
`Cc1c(N2CCc3cnc(Nc4cccc(CN5CCN(C)CC5)c4)nc3C2)cnc2c1NCCO2` [Example 66, 7-{8-methyl-1H,2H,3H-pyrido[2,3-b][1,4]oxazin-7-yl}-N-{3-[(4-methylpiperazin-1-yl)methyl]phenyl}-5H,6H,7H,8H-pyrido[3,4-d]pyrimidin-2-amine]: the results for the IC50 in assay [1] and in assay [2] were below 100 nM and 500 to 1000 nM, respectively.
Regarding `Cc1cc(Nc2cc3c(cn2)CCN(c2cnc4c(c2C)NCCO4)C3)ccc1NC(=O)CN(C)C` [Example 33, 2-(dimethylamino)-N-{2-methyl-4-[(6-{8-methyl-1H,2H,3H-pyrido[2,3-b][1,4]oxazin-7-yl}-5,6,7,8-tetrahydro-2,6-naphthyridin-3-yl)amino]phenyl}acetamide], the values for the IC50 in assay [1] and in assay [2] were below 100 nM and above 1000 nM, respectively.
Turning to `Cc1c(N2CCc3cnc(Nc4ccnc(N5CCN(C)CC5)c4)nc3C2)cnc2c1NCCO2` [Example 72, N-(7-{8-methyl-1H,2H,3H-pyrido[2,3-b][1,4]oxazin-7-yl}-5H,6H,7H,8H-pyrido[3,4-d]pyrimidin-2-yl)-2-(4-methylpiperazin-1-yl)pyridin-4-amine], the IC50 is below 100 nM in assay [1] and below 500 nM in assay [2].
As for `Cc1c(N2CCc3cnc(Nc4ccc(C(C)(C)S(C)(=O)=O)cc4)nc3C2)cnc2c1NCCO2` [Example 186, N-[4-(2-methanesulfonylpropan-2-yl)phenyl]-7-{8-methyl-1H,2H,3H-pyrido[2,3-b][1,4]oxazin-7-yl}-5H,6H,7H,8H-pyrido[3,4-d]pyrimidin-2-amine], the IC50 in assay [1] was below 100 nM; in assay [2], 500 to 1000 nM.
Consider `Cc1c(N2CCc3cnc(Nc4ccc(C5(S(C)(=O)=O)CC5)nc4)nc3C2)cnc2c1NCCO2` [Example 18, 6-(1-methanesulfonylcyclopropyl)-N-(7-{8-methyl-1H,2H,3H-pyrido[2,3-b][1,4]oxazin-7-yl}-5H,6H,7H,8H-pyrido[3,4-d]pyrimidin-2-yl)pyridin-3-amine], for which the concentration for half-maximal inhibition (IC50) was below 100 nM in assay [1] and 500 to 1000 nM in assay [2].
Consider `Cc1c(N2CCc3cnc(Nc4cccc(Cn5ccnc5)c4)nc3C2)cnc2c1NCCO2` [Example 191, N-{3-[(1H-imidazol-1-yl)methyl]phenyl}-7-{8-methyl-1H,2H,3H-pyrido[2,3-b][1,4]oxazin-7-yl}-5H,6H,7H,8H-pyrido[3,4-d]pyrimidin-2-amine], for which the IC50 in assay [1] was below 100 nM; in assay [2], below 500 nM.
As for `CN1CCc2ncc(Nc3ncc4c(n3)CN(c3cnc5c(c3)NCCO5)CC4)cc2C1` [Example 87, 7-(2,3-dihydro-1H-pyrido[2,3-b][1,4]oxazin-7-yl)-N-(6-methyl-5,6,7,8-tetrahydro-1,6-naphthyridin-3-yl)-5,6,7,8-tetrahydropyrido[3,4-d]pyrimidin-2-amine], the concentration for half-maximal inhibition (IC50) is 100 to 1000 nM in assay [1] and above 1000 nM in assay [2].
As to `Cc1c(N2CCc3cnc(Nc4ccc(NCCN(C)C)nc4)cc3C2)cnc2c1NCCO2` [Example 26, N2-[2-(dimethylamino)ethyl]-N5-(6-{8-methyl-1H,2H,3H-pyrido[2,3-b][1,4]oxazin-7-yl}-5,6,7,8-tetrahydro-2,6-naphthyridin-3-yl)pyridine-2,5-diamine], the IC50 in assay [1] is below 100 nM; in assay [2] it was 500 to 1000 nM.
On to `Cc1c(N2CCc3cnc(Nc4ccc(CS(C)(=O)=O)cc4)cc3C2)cnc2c1NCCO2` [Example 57, N-[4-(methanesulfonylmethyl)phenyl]-6-{8-methyl-1H,2H,3H-pyrido[2,3-b][1,4]oxazin-7-yl}-5,6,7,8-tetrahydro-2,6-naphthyridin-3-amine], for which the half-maximal inhibitory concentration (IC50) in assay [1] was below 100 nM; in assay [2], below 500 nM.
With `Cc1c(N2CCc3cnc(Nc4ccc(C5CCN(C)CC5)c(CO)c4)nc3C2)cnc2c1NCCO2` [Example 107, (5-((7-(8-methyl-2,3-dihydro-1H-pyrido[2,3-b][1,4]oxazin-7-yl)-5,6,7,8-tetrahydropyrido[3,4-d]pyrimidin-2-yl)amino)-2-(1-methylpiperidin-4-yl)phenyl)methanol], the half-maximal inhibitory concentration (IC50) in assay [1] was below 100 nM; in assay [2], 500 to 1000 nM.
For `Cc1c(N2CCc3cnc(Nc4ccc(CC(=O)N(C)C)cc4)nc3C2)cnc2c1NCCO2` [Example 189, N,N-dimethyl-2-{4-[(7-{8-methyl-1H,2H,3H-pyrido[2,3-b][1,4]oxazin-7-yl}-5H,6H,7H,8H-pyrido[3,4-d]pyrimidin-2-yl)amino]phenyl}acetamide] the same measures were below 100 nM and below 500 nM.
In the case of `Cc1c(N2CCc3cnc(Nc4ccc(CN5CCOCC5)cc4)nc3C2)cnc2c1NCCO2` [Example 99, 7-(8-methyl-2,3-dihydro-1H-pyrido[2,3-b][1,4]oxazin-7-yl)-N-(4-(morpholinomethyl)phenyl)-5,6,7,8-tetrahydropyrido[3,4-d]pyrimidin-2-amine], the IC50 in assay [1] is below 100 nM; in assay [2], 500 to 1000 nM.
On to `Cc1c(N2CCc3cnc(Nc4ccc(CS(C)(=O)=O)cc4)nc3C2)cnc2c1NCCC2=O` [Example 142, 7-(2-{[4-(methanesulfonylmethyl)phenyl]amino}-5H,6H,7H,8H-pyrido[3,4-d]pyrimidin-7-yl)-8-methyl-1,2,3,4-tetrahydro-1,5-naphthyridin-4-one], for which the values for the IC50 in assay [1] and in assay [2] were below 100 nM and above 1000 nM, respectively.
Turning to `Cc1c(N2CCc3cnc(Nc4ccc(NC(=O)CN5CCOCC5)nc4)cc3C2)cnc2c1NCCO2` [Example 32, N-{5-[(6-{8-methyl-1H,2H,3H-pyrido[2,3-b][1,4]oxazin-7-yl}-5,6,7,8-tetrahydro-2,6-naphthyridin-3-yl)amino]pyridin-2-yl}-2-(morpholin-4-yl)acetamide], the half-inhibitory concentration (IC50) in assay [1] was below 100 nM; in assay [2] it was above 1000 nM.
Consider `Cc1c(N2CCc3cnc(Nc4ccc(CS(=O)(=O)C5CC5)nc4)nc3C2)cnc2c1NCCO2` [Example 40, 6-[(cyclopropanesulfonyl)methyl]-N-(7-{8-methyl-1H,2H,3H-pyrido[2,3-b][1,4]oxazin-7-yl}-5H,6H,7H,8H-pyrido[3,4-d]pyrimidin-2-yl) pyridin-3-amine], for which the IC50 in assay [1] was below 100 nM; in assay [2], below 500 nM.
Regarding `Cc1c(N2CCc3cnc(Nc4ccc(CN(C)C)cc4)nc3C2)cnc2c1NCCO2` [Example 59, N-{4-[(dimethylamino)methyl]phenyl}-7-{8-methyl-1H,2H,3H-pyrido[2,3-b][1,4]oxazin-7-yl}-5H,6H,7H,8H-pyrido[3,4-d]pyrimidin-2-amine; formic acid], the IC50 is below 100 nM in assay [1] and above 1000 nM in assay [2].
